Experimental data reported in patent US20250144067A1, “PERSONALIZED STARVATION THERAPY FOR CANCER” (Faeth Therapeutics, Inc., priority 2021, published 2025).
Counter-ions that a name gives are not always drawn. Like-named read-outs stand apart in the source and are kept apart here.

Key:
[1] = test system: NCI-H292 lung cancer cells; test: FDA drug screening, complete media vs cholesterol-free media with simvastatin (TABLE 2); format: cell-based, human
[2] = test system: NCI-H292 lung cancer cells; test: FDA drug screening, complete media vs cholesterol-free media without statin (TABLE 1); format: cell-based, human
[3] = NCI-H292 cells, drug in cholesterol-free media with simvastatin 0.04 μM
[4] = NCI-H292 cells, drug in complete media
[5] = complete media vs cholesterol-free media + simvastatin (0.04 μM), >0 enhanced anti-cancer activity, about 0 neutral, <0 antagonist
[6] = NCI-H292 cells, cholesterol-free media without statin
[7] = complete vs cholesterol-free media, greater than 0 enhanced anti-cancer activity, about 0 neutral, below 0 antagonists
[8] = NCI-H292 cells, cholesterol-free media without statin, FDA drug library screen
[9] = NCI-H292 cells, complete media, FDA drug library screen
[10] = NCI-H292 cells, FDA library drug in cholesterol-free media with simvastatin 0.04 μM
[11] = NCI-H292 cells, FDA library drug in complete media
[12] = NCI-H292 cells, cholesterol-free media with simvastatin 0.04 μM, FDA drug library screen (TABLE 2)
[13] = NCI-H292 cells, complete media, FDA drug library screen (TABLE 2)
[14] = complete media minus cholesterol-free media + simvastatin (0.04 μM), >0 enhanced anti-cancer activity, about 0 neutral, <0 antagonist
[15] = Complete minus Cholesterol-free, >0 enhanced anti-cancer activity, about 0 neutral, <0 antagonist
[16] = complete vs cholesterol-free media, >0 enhanced anti-cancer activity, about 0 neutral, <0 antagonist
[17] = NCI-H292 cells, FDA drug library screen, cholesterol-free media with simvastatin 0.04 μM
[18] = NCI-H292 cells, FDA drug library screen, complete media
[19] = Complete minus Cholesterol-free, greater than 0 enhanced anti-cancer activity, about 0 neutral, below 0 antagonists
[20] = NCI-H292 cells in cholesterol-free media without statin
[21] = NCI-H292 cells in complete media
[22] = complete media minus cholesterol-free media + simvastatin, >0 enhanced anti-cancer activity, about 0 neutral, <0 antagonist

## CC(C)(C)NC(=O)[C@@H]1C[C@@H]2CCCC[C@@H]2CN1C[C@@H](O)[C@H](Cc1ccccc1)NC(=O)[C@H](CC(N)=O)NC(=O)c1ccc2ccccc2n1 [Saquinavir]
[1]; [3]
  Cholesterol-free media + simvastatin (0.04 μM): 0.9867
[1]; [4]
  Complete Media: 0.801
[1]; [5]
  Difference: −0.19
[2]; [6]
  Cholesterol-free: 1.314
[2]; NCI-H292 cells, complete media
  Complete: 0.9252
[2]; [7]
  Difference: −0.39

## CNCC(=O)N[C@@H](CCCN=C(N)N)C(=O)N[C@H](C(=O)N[C@@H](Cc1ccc(O)cc1)C(=O)N[C@H](C(=O)N[C@@H](Cc1cnc[nH]1)C(=O)N1CCC[C@H]1C(=O)N[C@@H](C)C(=O)O)C(C)C)C(C)C [Saralasin (TFA)]
[1]; NCI-H292 cells, cholesterol-free media with simvastatin 0.04 μM, […]
  Cholesterol-free media + simvastatin (0.04 μM): 0.7862
[1]; NCI-H292 cells, complete media, […]
  Complete Media: 0.8195
[1]; complete media minus cholesterol-free media + simvastatin, […]
  Difference: 0.03
[2]; [8]
  Cholesterol-free: 1.11
[2]; [9]
  Complete: 1.396
[2]; complete vs cholesterol-free media, […]
  Difference: 0.29

## COc1cccc(CCc2ccccc2OCC(CN(C)C)OC(=O)CCC(=O)O)c1 (stereo not drawn) [Sarpogrelate (hydrochloride)]
[1]; [10]
  Cholesterol-free media + simvastatin (0.04 μM): 1.378
[1]; [11]
  Complete Media: 1.089
[1]; [5]
  Difference: −0.29
[2]; [6]
  Cholesterol-free: 1.015
[2]; NCI-H292 cells, complete media
  Complete: 0.6472
[2]; [7]
  Difference: −0.37

## N#C[C@@H]1C[C@@H]2C[C@@H]2N1C(=O)[C@@H](N)C12CC3CC(CC(O)(C3)C1)C2 [Saxagliptin]
[1]; [12]
  Cholesterol-free media + simvastatin (0.04 μM): 0.8307
[1]; [13]
  Complete Media: 0.816
[1]; [14]
  Difference: −0.01
[2]; [15]
  Difference: −0.04
[2]; [8]
  Cholesterol-free: 0.9657
[2]; [9]
  Complete: 0.9238

## Cc1ncc([N+](=O)[O-])n1CC(C)O (stereo not drawn) [Secnidazole]
[1]; [12]
  Cholesterol-free media + simvastatin (0.04 μM): 1.474
[1]; [13]
  Complete Media: 1.409
[1]; [14]
  Difference: −0.07
[2]; [8]
  Cholesterol-free: 1.105
[2]; [9]
  Complete: 1.528
[2]; [16]
  Difference: 0.42

## CO[C@H]1C[C@H](O[C@@H]2/C(C)=C/C[C@@H]3C[C@@H](C[C@]4(CC[C@H](C)[C@@H](C5CCCCC5)O4)O3)OC(=O)[C@@H]3C=C(C)/C(=N/O)[C@H]4OC/C(=C\C=C\[C@@H]2C)[C@]43O)O[C@@H](C)[C@@H]1O [Selamectin]
[1]
  Cholesterol-free media + simvastatin (0.04 μM): 0.0107
  Complete Media: 0.03346
  Difference: 0.02
[2]
  Cholesterol-free: −0.000828
  Complete: −0.0121
  Difference: −0.01

## C[Se]CC[C@H](N)C(=O)O [Selenomethionine]
[1]; [17]
  Cholesterol-free media + simvastatin (0.04 μM): 1.83
[1]; [18]
  Complete Media: 1.71
[1]; [5]
  Difference: −0.12
[2]; [19]
  Difference: −0.63
[2]; [20]
  Cholesterol-free: 1.898
[2]; [21]
  Complete: 1.265

## CC(C)N(CCCCOCC(=O)NS(C)(=O)=O)c1cnc(-c2ccccc2)c(-c2ccccc2)n1 [Selexipag]
[1]; NCI-H292 cells, cholesterol-free media with simvastatin 0.04 μM, cell growth value in FDA drug screen
  Cholesterol-free media + simvastatin (0.04 μM): 0.9295
[1]; NCI-H292 cells, complete media, cell growth value in FDA drug screen
  Complete Media: 1.013
[1]; [22]
  Difference: 0.08
[2]; [8]
  Cholesterol-free: 0.7206
[2]; [9]
  Complete: 1.028
[2]; [16]
  Difference: 0.31

## COc1ccc(CN2C3CC2CN(c2ccc(-c4cc(OCC(C)(C)O)cn5ncc(C#N)c45)cn2)C3)cn1 [Selpercatinib]
[1]; [17]
  Cholesterol-free media + simvastatin (0.04 μM): 1.485
[1]; [18]
  Complete Media: 1.627
[1]; [22]
  Difference: 0.14
[2]; [15]
  Difference: −0.01
[2]; [8]
  Cholesterol-free: 0.9224
[2]; [9]
  Complete: 0.9158

## Cn1cnc2c(F)c(Nc3ccc(Br)cc3Cl)c(C(=O)NOCCO)cc21 [Selumetinib]
[1]; [10]
  Cholesterol-free media + simvastatin (0.04 μM): 0.7343
[1]; [11]
  Complete Media: 0.4618
[1]; [5]
  Difference: −0.27
[2]; Complete minus Cholesterol-free, greater than 0 enhanced anti-cancer activity, about 0 neutral, below 0 antagonist
  Difference: −0.18
[2]; NCI-H292 cells, FDA drug library screen, cholesterol-free media without statin
  Cholesterol-free: 0.4744
[2]; [18]
  Complete: 0.2899

## CC1=C(C)C(=O)C(C(CCCCCC(=O)O)c2ccccc2)=C(C)C1=O (stereo not drawn) [Seratrodast]
[1]; [17]
  Cholesterol-free media + simvastatin (0.04 μM): 0.9305
[1]; [18]
  Complete Media: 1.335
[1]; [22]
  Difference: 0.40
[2]; [15]
  Difference: 0.00
[2]; [8]
  Cholesterol-free: 0.9876
[2]; [9]
  Complete: 0.9904

## NCCc1c[nH]c2ccc(O)cc12 [Serotonin hydrochloride]
[1]; [3]
  Cholesterol-free media + simvastatin (0.04 μM): 1.379
[1]; [4]
  Complete Media: 1.18
[1]; [5]
  Difference: −0.20
[2]; [19]
  Difference: −0.64
[2]; [20]
  Cholesterol-free: 1.639
[2]; [21]
  Complete: 1.003

## O=C1NCCN1CCN1CCC(c2cn(-c3ccc(F)cc3)c3ccc(Cl)cc23)CC1 [Sertindole]
[1]; [17]
  Cholesterol-free media + simvastatin (0.04 μM): 0.7983
[1]; [18]
  Complete Media: 1.128
[1]; [22]
  Difference: 0.33
[2]; [15]
  Difference: −0.04
[2]; [8]
  Cholesterol-free: 0.5468
[2]; [9]
  Complete: 0.5035
